Experiments:
HCT116 (colon) = assay: In vitro cytotoxic activity (MTT) assay, HCT116; type: cell-based; details: Homo sapiens, HCT-116, cells exposed for 96 hours, read-out: IC50, 50% inhibition of cell proliferation
Description: (§1) Compounds 1-12 were screened for their in vitro cytotoxic activity utilizing a 3-(4,5-dimethyl-thiazol-2-yl)-2,5-diphenyltetrazolium bromide (MTT) assay against selected cancer human cell lines consisting of PC3 (prostate), HCT116 (colon), A375 (melanoma), H1299 (lung), MIAPaCa-2 (pancreas), HL60 (leukemia), MCF7 (breast), MDA-MB-231 (breast) (T. Mosmann, J. Immunol. Meth., 1983, 65, 55-63). The cells were cultured at 37° C. in RMPI1640 medium supplemented with 10% fetal bovine serum, 50 IU/mL penicillin, and 50 μg/mL streptomycin in a 5% CO2 incubator. All cells were sub-cultured 3 times/week by trypsinisation. Viable cells were seeded and allowed to adhere for 12 h before a test drug was added in 96-well plates at an initial density of 1.0×10^5 cells/mL. Tumour cell lines were separately exposed to various concentrations of the tested compounds followed by incubation at a temperature of 37° C. during 96 h inside a medium of fresh RMPI 1640. Cells were subsequently incubated at 37° C. using MTT at 0.5 mg/mL during 4 h. After removal of supernatant, formazan crystals were dissolved in isopropanol and the optical density was measured at 570 nm. CX-4945 was used as a positive control.

recombinant human CK2 = target: T1, recombinant human CK2 (Homo sapiens, UniProt P68400); assay: CK2 Kinase Assay (33P-ATP, filter plate); type: biochemical; details: final ATP concentration 15 μM, 10 min at 30° C.; read-out: protein kinase CK2 IC50
T1 construct: purchased Millipore
Description: CK2 Kinase Assay was conducted using the protocol as described in Pierre F. et al; J. Med. Chem. 2011, 54, 635-654. The tested compounds in aqueous solution were added at a volume of 10 μL to a reaction mixture comprising 10 μL of assay dilution buffer (ADB; 20 mM MOPS, pH 7.2, 25 mM β-glycerol phosphate, 5 mM EGTA, 1 mM sodium orthovanadate, and 1 mM dithiothreitol), 10 μL of substrate peptide (RRRDDDSDDD, dissolved in ADB at a concentration of 1 mM), 10 μL of recombinant human CK2 (RRfββ-holoenzyme, 25 ng dissolved in ADB; Millipore). Reactions were initiated by the addition of 10 μL of ATP solution (90% 75 mMMgCl2, 75 μM ATP (final ATP concentration:15 μM) dissolved in ADB; 10% [γ-33P] ATP (stock 1mCi/100 μL; 3000 Ci/mmol (Perkin-Elmer) and maintained for 10 min at 30° C. The reactions were quenched with 100 μL of 0.75% phosphoric acid and then transferred to and filtered through a phosphor cellulose filter plate (Millipore). After washing each well five times with 0.75% phosphoric acid, the plate was dried under vacuum for 5 min and, following the addition of 15 μL of scintillation fluid to each well, the residual radioactivity was measured using a Wallac […]. The IC50 values were derived from eight concentrations of test inhibitors.

H1299 (lung) = assay: In vitro cytotoxic activity (MTT) assay, H1299; type: cell-based; details: Homo sapiens, NCI-H1299, cells exposed for 96 hours, read-out: IC50, 50% inhibition of cell proliferation
Description: as §1

HL60 (leukemia) = assay: In vitro cytotoxic activity (MTT) assay, HL60; type: cell-based; details: Homo sapiens, HL-60, cells exposed for 96 hours, read-out: IC50, 50% inhibition of cell proliferation
Description: as §1

A375 (melanoma) = assay: In vitro cytotoxic activity (MTT) assay, A375; type: cell-based; details: Homo sapiens, A-375, cells exposed for 96 hours, read-out: IC50, 50% inhibition of cell proliferation
Description: as §1

PC3 (prostate) = assay: In vitro cytotoxic activity (MTT) assay, PC3; type: cell-based; details: Homo sapiens, Prostate cell, cells exposed for 96 hours, read-out: IC50, 50% inhibition of cell proliferation
Description: as §1

MCF7 (breast) = assay: In vitro cytotoxic activity (MTT) assay, MCF7; type: cell-based; details: Homo sapiens, cells exposed for 96 hours, read-out: IC50, 50% inhibition of cell proliferation
Description: as §1

MDA-MB-231 (breast) = assay: In vitro cytotoxic activity (MTT) assay, MDA-MB-231; type: cell-based; details: Homo sapiens, cells exposed for 96 hours, read-out: IC50, 50% inhibition of cell proliferation
Description: as §1

MIAPaCa-2 (pancreas) = assay: In vitro cytotoxic activity (MTT) assay, MIAPaCa-2; type: cell-based; details: Homo sapiens, MIA PaCa-2, cells exposed for 96 hours, read-out: IC50, 50% inhibition of cell proliferation
Description: as §1

T1 sequence (P68400 whole entry): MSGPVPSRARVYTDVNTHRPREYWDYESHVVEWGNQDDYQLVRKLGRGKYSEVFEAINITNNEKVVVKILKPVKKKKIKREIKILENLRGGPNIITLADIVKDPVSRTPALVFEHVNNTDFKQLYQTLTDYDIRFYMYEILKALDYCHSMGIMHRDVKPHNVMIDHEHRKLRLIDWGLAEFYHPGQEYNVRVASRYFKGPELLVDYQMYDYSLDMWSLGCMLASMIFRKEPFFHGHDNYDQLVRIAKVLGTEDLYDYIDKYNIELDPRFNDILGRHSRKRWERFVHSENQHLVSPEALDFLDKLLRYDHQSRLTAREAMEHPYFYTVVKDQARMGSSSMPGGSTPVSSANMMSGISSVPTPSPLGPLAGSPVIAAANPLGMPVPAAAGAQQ
T1 sequence (P67870 whole entry partner): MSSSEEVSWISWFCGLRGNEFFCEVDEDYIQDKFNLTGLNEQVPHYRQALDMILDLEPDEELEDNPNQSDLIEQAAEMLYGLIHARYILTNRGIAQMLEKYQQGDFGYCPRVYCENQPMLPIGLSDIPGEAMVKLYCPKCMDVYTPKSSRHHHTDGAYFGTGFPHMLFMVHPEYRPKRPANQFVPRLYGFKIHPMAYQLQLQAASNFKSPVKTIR

Work on `O=C(O)c1ccc2c(c1)cc1c(Nc3ccc(Cl)cc3)nc3ccncc3n12` [Compound 1, 6-((4-chlorophenyl)amino)pyrido[4′,3′:5,6]pyrazino[1,2-a]indole-9-carboxylic acid] yielded an IC50 (HCT116 (colon)) of 1900 nM, an IC50 (recombinant human CK2) of 12 nM and an IC50 (H1299 (lung)) of 3100 nM. For the same compound, the IC50 (HL60 (leukemia)) was 2800 nM, the IC50 (A375 (melanoma)) was 2500 nM and the IC50 (PC3 (prostate)) was 1600 nM. For the same compound, the IC50 (MCF7 (breast)) was 7800 nM, the IC50 (MDA-MB-231 (breast)) was 6100 nM and the IC50 (MIAPaCa-2 (pancreas)) was 900 nM.
